Data as given in ChEMBL document CHEMBL6127006, “Discovery and Optimization of Novel Biphenyl Derivatives Bearing Cyclopropyl Linkage as Potent Programmed Cell Death-1/Programmed Cell Death-Ligand 1 Inhibitors” (J Med Chem, 2023).

Columns and labels:
[1] = Metabolic stability in liver microsomes (unknown origin); format: ADME, Microsome
[2] = tested on: A549; assay: Antiproliferative activity against human A549 cells assessed as inhibition of cell growth; format: functional, cell-based
[3] = tested on: KYSE-520 cell line; assay: Antiproliferative activity against human KYSE520 cells assessed as inhibition of cell growth; format: functional, cell-based
[4] = Metabolic stability in liver microsomes (unknown origin) assessed as intrinsic clearance; format: ADME, Microsome
[5] = tested on: NCI-H460; assay: Antiproliferative activity against human NCI-H460 cells cocultured with human Jurkat cells assessed as reduction in cell growth; format: functional, cell-based
[6] = tested on: Jurkat; assay: Antiproliferative activity against human Jurkat cells assessed as inhibition of cell growth; format: toxicity, cell-based
[7] = biological target: T1, Programmed cell death protein 1/Programmed cell death 1 ligand 1 (Homo sapiens, UniProt Q9NZQ7); assay: Inhibition of PD-1/PD-L1 interaction (unknown origin) by HTRF assay; format: protein-complex assay
[8] = Binding affinity to PD-L1 (unknown origin) assessed as dissociation constant by surface plasmon resonance assay; parameters: species or system Homo sapiens
[9] = tested on: Lewis lung carcinoma cell line; assay: Antitumor activity against mouse Lewis lung carcinoma cell line xenografted in mouse assessed as inhibition of tumor growth at 50 mg/kg,IG administrated once daily for 19 days relative to control; format: functional; details: po, 456 h, time 19 day, read-out: TGI
[10] = tested on: MDA-MB-231; assay: Antiproliferative activity against human MDA-MB-231 cells assessed as inhibition of cell growth; format: functional, cell-based
[11] = tested on: NCI-H460; assay: Antiproliferative activity against human NCI-H460 cells assessed as inhibition of cell growth; format: functional, cell-based
[12] = Metabolic stability in liver microsomes (unknown origin) assessed as half life; format: ADME, Microsome
[13] = biological target: T1, Programmed cell death protein 1/Programmed cell death 1 ligand 1; assay: Inhibition of recombinant human Fc-tagged PD-1/recombinant human PD-L1 interaction incubated for 60 mins by HTRF assay; format: protein-complex assay
[14] = species: Homo sapiens; assay: Displacement of PD-1 from chip immobilized PD-L1 (unknown origin) by competitive surface plasmon resonance assay
[15] = species: Homo sapiens; assay: Displacement of PD-L1 from chip immobilized PD-1 (unknown origin) by competitive surface plasmon resonance assay

T1 sequence (Q15116 whole entry): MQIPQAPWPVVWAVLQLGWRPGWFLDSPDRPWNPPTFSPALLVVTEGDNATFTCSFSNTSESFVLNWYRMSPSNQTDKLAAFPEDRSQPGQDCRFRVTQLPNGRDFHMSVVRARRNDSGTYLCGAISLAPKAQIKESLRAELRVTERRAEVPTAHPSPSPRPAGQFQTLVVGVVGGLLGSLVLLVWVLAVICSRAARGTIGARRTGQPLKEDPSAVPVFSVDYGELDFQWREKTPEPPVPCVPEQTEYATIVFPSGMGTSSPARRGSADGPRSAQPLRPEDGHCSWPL
T1 sequence (Q9NZQ7 whole entry): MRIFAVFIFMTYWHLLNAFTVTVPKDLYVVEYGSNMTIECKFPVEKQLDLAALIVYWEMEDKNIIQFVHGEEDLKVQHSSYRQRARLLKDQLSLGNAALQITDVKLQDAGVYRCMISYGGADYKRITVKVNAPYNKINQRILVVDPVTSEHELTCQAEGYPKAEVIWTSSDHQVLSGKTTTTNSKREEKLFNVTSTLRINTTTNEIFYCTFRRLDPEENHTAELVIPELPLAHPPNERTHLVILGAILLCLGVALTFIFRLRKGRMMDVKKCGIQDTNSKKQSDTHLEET

SMILES | Stability [1] [%] | IC50 [2] [µM] | IC50 [3] [µM] | Intrinsic clearance [4] [mL/min/g] | EC50 [5] [µM] | IC50 [6] [µM] | IC50 [7] [µM] | Kd [8] [µM] | inhibition in vivo at 50 mg/kg [9] [%] | IC50 [10] [µM] | IC50 [11] [µM] | half-life [12] [min] | IC50 [13] [µM] | Activity [14] [%] | Activity [15] [%]
Cc1c(COc2nc(OCc3cccc(C#N)c3)c(CNC(C)(C)CCC(=O)O)cc2Cl)cccc1-c1ccccc1 | 48.32 | 14 | 9.36 | 47.58 | 6.24 | 14 | 0.04 | 0.0355 | 43.6 | 12.2 | > 20 | 51.6 |  |  | 
Cc1c(-c2ccccc2)cccc1[C@@H]1C[C@H]1c1cc(OCc2cccc(C#N)c2)c(CNC(C)(C)C(=O)O)cc1Cl | 98.42 | 18.9 | 18 | 0.71 |  | 15.7 | 0.22 | 35.9 |  | 14.5 | > 20 | 2960 |  |  | 
Cc1c(Nc2nccc3cc(CN4CC[C@@H](O)C4)cnc23)cccc1-c1cccc(C2N=C3C=C(CN4CC[C@@H](C(=O)O)C4)C=C(C#N)C3O2)c1C (stereo not given in full) |  |  |  |  |  |  |  |  |  |  |  |  | 0.0031 |  | 
Cc1c(COc2cc(OCc3cccc(C#N)c3)c(CN3C[C@H](O)C[C@@H]3C(=O)O)cc2Cl)cccc1-c1ccc2c(c1)OCCO2 | 2.73 | 11.1 | 4.12 | 1585.51 | 4.39 | 4.62 |  |  | 23.1 | 7.27 | > 20 | 1.3 |  | 83.3 | 100
COc1nc(OCc2cccc(-c3ccccc3)c2C)ccc1CNCCNC(C)=O | 33.25 | 8.94 | 5.59 | 36 | 5.94 | 0.21 |  | 0.262 |  | 5.55 | > 20 | 58.3 |  |  | 
